Counter-ions that a name gives are not always drawn.
Biological target: T1, G9a (Homo sapiens, UniProt Q96KQ7)
T1 sequence (Q96KQ7 1-1210): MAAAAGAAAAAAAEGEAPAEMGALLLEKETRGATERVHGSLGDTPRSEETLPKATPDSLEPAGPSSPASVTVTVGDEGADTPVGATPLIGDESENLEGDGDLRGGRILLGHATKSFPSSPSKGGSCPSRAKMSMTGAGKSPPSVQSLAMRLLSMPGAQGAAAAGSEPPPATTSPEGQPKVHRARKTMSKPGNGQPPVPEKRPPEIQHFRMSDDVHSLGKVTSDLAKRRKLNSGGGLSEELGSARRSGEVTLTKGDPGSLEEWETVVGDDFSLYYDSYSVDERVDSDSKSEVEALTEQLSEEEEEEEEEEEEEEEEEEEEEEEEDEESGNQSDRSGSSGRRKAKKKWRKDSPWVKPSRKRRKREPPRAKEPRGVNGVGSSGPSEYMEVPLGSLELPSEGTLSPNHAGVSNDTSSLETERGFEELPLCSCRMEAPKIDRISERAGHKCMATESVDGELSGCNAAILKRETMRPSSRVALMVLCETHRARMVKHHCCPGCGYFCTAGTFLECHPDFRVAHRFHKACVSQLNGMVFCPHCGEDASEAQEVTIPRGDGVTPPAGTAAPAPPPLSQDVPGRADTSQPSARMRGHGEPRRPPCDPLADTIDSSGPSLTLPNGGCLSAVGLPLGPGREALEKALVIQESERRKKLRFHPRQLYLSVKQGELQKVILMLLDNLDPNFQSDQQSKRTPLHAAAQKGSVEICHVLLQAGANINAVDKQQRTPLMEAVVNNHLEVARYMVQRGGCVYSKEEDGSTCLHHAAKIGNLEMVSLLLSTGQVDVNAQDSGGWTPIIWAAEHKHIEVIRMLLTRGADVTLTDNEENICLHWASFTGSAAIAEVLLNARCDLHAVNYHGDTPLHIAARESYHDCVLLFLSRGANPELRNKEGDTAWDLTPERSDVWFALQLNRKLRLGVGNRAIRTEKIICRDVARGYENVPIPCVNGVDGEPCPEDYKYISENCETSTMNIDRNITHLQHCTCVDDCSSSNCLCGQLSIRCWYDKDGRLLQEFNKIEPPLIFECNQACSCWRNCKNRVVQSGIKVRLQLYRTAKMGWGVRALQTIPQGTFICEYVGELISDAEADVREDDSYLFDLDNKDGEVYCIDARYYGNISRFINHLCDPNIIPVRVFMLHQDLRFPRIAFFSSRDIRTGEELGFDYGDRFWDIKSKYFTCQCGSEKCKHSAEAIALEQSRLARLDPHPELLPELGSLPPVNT
Assay: G9a AlphaLISA enzymatic activity assay
Assay type: biochemical
Conditions: 0.15 nM G9a, 15 uM S-adenosyl-methionine, 100 nM biotinylated histone 3 peptide (1-21), 1 hour at room temperature; read-out: G9a in (uM) (IC50, concentration that produced 50% inhibition)
From the text: The G9a AlphaLISA assay was used to detect the methyl modifications of a biotinylated histone H3 peptide by the compounds. These modifications are done by the histone methyl transferase activity of the G9a enzyme. The assay consists of reading a chemiluminescent signal at 615 nm; this signal is generated by a laser excitation at 680 nm that transfers a reactive singlet oxygen between the donor beads and acceptor beads. Donor beads are streptavidin conjugated and bind to the biotin on the peptide. Acceptor beads are conjugated with an antibody that recognizes the specific G9a methyl mark on the peptide. If there is a methyl mark on the peptide, the acceptor beads will bind to the peptide. Upon binding, the acceptor beads will be in close proximity (<200 nm) of the donor beads and when the donor beads are excited, the transfer of the oxygen can occur and a strong signal will be generated. If there is no methyl mark, the interaction between beads will not occur and signal will be at background levels.
For the assay, the following buffer was used to set up reactions: 50 mM Tris-HCl pH9, 50 mM NaCl, 0.01% Tween-20 and 1 mM DTT (added fresh prior to starting the reactions). The assay is set up by adding a final concentration of 0.15 nM G9a, 15 uM S-adenosyl-methionine and, 100 nM biotinylated histone 3 peptide (1-21). The reaction is incubated at room temperature for 1 hour, and subsequently quenched by the addition of the acceptor beads (anti-H3k9me2 AlphaLISA acceptor beads, PerkinElmer # AL117) at a final concentration of 20 ug/mL. The acceptor beads are incubated for 1 hour. After 1 hour, the donor beads are added at a final concentration of 20 ug/mL (Alpha Streptavidin donor beads, PerkinElmer #6760002). Donor beads are incubated for 0.5 hours. Both donor and acceptor beads are resuspended in AlphaLISA 5X Epigenetics Buffer 1 Kit (PerkinElmer # AL008) prior to addition to the reaction. All manipulations and incubations with the donor and acceptor beads are done in subdued light. Signal is detected in an EnVision plate reader in Alpha mode (see ACS Med Chem Lett. 2014 Jan. 2; 5(2):205-9. doi: 10.1021/m1400496h. eCollection 2014. Discovery and development of potent and selective inhibitors of histone methyltransferase g9a.)
Percent inhibition was calculated for each compound dilution and the concentration that produced 50% inhibition was calculated. This value is presented as the IC50.

IC50 [µM] | Structure (SMILES)
0.15 | COc1cc2c3c(c(NCCc4ccccc4)nc2cc1OCCCN1CCCC1)CCC3 [Example 5, 8-methoxy-N-(2-phenylethyl)-7-[3-(pyrrolidin-1-yl)propoxy]-1H,2H,3H-cyclopenta[c]quinolin-4-amine trifluoroacetate]
5.8 | COc1cc2c3c(c(NC4COC4)nc2cc1OCCCN1CCCC1)CCC3 [Example 44, 8-methoxy-N-(oxetan-3-yl)-'7-[3-(pyrrolidin-1-yl)propoxy]-1H,2H,3H-cyclopenta[c]quinolin-4-amine formate]
1.3 | COc1cc2c3c(c(O)nc2cc1OCCCN1CCCC1)CCC3 [Example 37, 8-methoxy-7-[3-(pyrrolidin-1-yl)propoxy]-1H,2H,3H-cyclopenta[c]quinolin-4-ol trifluoroacetate]
0.01 | COc1cc2c3c(c(NC(C)C)nc2cc1OCCCN1CCCC1)CCCCN3 [Example 34, 10-methoxy-N-(propan-2-yl)-9-[3-(pyrrolidin-1-yl)propoxy]-1H,2H,3H,4H,5H-azepino[3,2-c]quinolin-6-amine formate]
0.012 | CNc1nc2cc(OCCCN3CCCC3)c(OC)cc2c2c1CCCCN2 [Example 33, 10-methoxy-N-methyl-9-[3-(pyrrolidin-1-yl)propoxy]-1H,2H,3H,4H,5H-azepino[3,2-c]quinolin-6-amine formate]
1.9 | COc1cc2c3c(c(N(C)C4CCCC4)nc2cc1OCCCN1CCCC1)CCC3 [Example 73, N-cyclopentyl-8-methoxy-N-methyl-7-[3-(pyrrolidin-1-yl)propoxy]-1H,2H,3H-cyclopenta[c]quinolin-4-amine trifluoroacetate]
0.012 | COc1cc2c3c(cnc2cc1OCCCN1CCCC1)CC(C)(C)N3 [Example 35, 1-[3-({8-methoxy-2,2-dimethyl-1H,2H,3H-pyrrolo[3,2-c]quinolin-7-yl}oxy)propyl]pyrrolidine formate]
0.003 | CNc1nc2cc(OCCCN3CCCC3)c(OC)cc2c2c1CCN2 [Example 22, 8-methoxy-N-methyl-7-[3-(pyrrolidin-1-yl)propoxy]-1H,2H,3H-pyrrolo[3,2-c]quinolin-4-amine trifluoroacetate]
0.006 | CNc1nc2cc(OCCCN3CCCC3)c(OC)cc2c2c1CC(C)(C)N2 [Example 24, 8-methoxy-N,2,2-trimethyl-7-[3-(pyrrolidin-1-yl)propoxy]-1H,2H,3H-pyrrolo[3,2-c]quinolin-4-amine trifluoroacetate]
0.74 | COc1cc2c3c(c(NCC(F)(F)F)nc2cc1OCCCN1CCCC1)CCC3 [Example 65, 8-methoxy-7-[3-(pyrrolidin-1-yl)propoxy]-N-(2,2,2-trifluoroethyl)-1H,2H,3H-cyclopenta[c]quinolin-4-amine formate]
0.24 | COc1cc2c3c(c(NC(C)C)nc2cc1OCCCN1CCCC1)COCC3 [Example 50, 9-methoxy-N-(propan-2-yl)-8-[3-(pyrrolidin-1-yl)propoxy]-1H,2H,4H-pyrano[3,4-c]quinolin-5-amine formate]
0.009 | CNc1nc2cc(OCCCN3CCCC3)c(OC)cc2c2c1CCC(C)N2 (centres unmarked) [Example 29, 9-methoxy-N,2-dimethyl-8-[3-(pyrrolidin-1-yl)propoxy]-1H,2H,3H,4H-benzo[h]1,6-naphthyridin-5-amine formate]
0.043 | COc1cc2c3c(c(N[C@H]4CCCC[C@@H]4O)nc2cc1OCCCN1CCCC1)CCC3 [Example 122, (1S,2S)-2-({8-methoxy-7-[3-(pyrrolidin-1-yl)propoxy]-1H,2H,3H-cyclopenta[c]quinolin-4-yl}amino)cyclohexan-1-ol formate]
0.016 | COc1cc2c3c(c(NC4CCCCC4)nc2cc1OCCCN1CCCC1)CCC3 [Example 107, N-cyclohexyl-8-methoxy-7-[3-(pyrrolidin-1-yl)propoxy]-1H,2H,3H-cyclopenta[c]quinolin-4-amine trifluoroacetate]
0.009 | COc1cc2c3c(c(C)nc2cc1OCCCN1CCCC1)CCC(C)N3 (centres unmarked) [Example 31, 1-[3-({9-methoxy-2,5-dimethyl-1H,2H,3H,4H-benzo[h]1,6-naphthyridin-8-yl}oxy)propyl]pyrrolidine trifluoroacetate]
1.4 | COc1cc2c3c(c(NC(C)(C)C)nc2cc1OCCCN1CCCC1)CCC3 [Example 94, N-tert-butyl-8-methoxy-7-[3-(pyrrolidin-1-yl)propoxy]-1H,2H,3H-cyclopenta[c]quinolin-4-amine formate]
0.11 | COc1cc2c3c(c(N[C@H]4CCOC4)nc2cc1OCCCN1CCCC1)CCC3 [Example 18, 8-methoxy-N-[(3S)-oxolan-3-yl]-7-[3-(pyrrolidin-1-yl)propoxy]-1H,2H,3H-cyclopenta[c]quinolin-4-amine formate]
0.22 | COc1cc2c3c(c(NCCC(F)(F)F)nc2cc1OCCCN1CCCC1)CCC3 [Example 66, 8-methoxy-7-[3-(pyrrolidin-1-yl)propoxy]-N-(3,3,3-trifluoropropyl)-1H,2H,3H-cyclopenta[c]quinolin-4-amine]
0.084 | COc1cc2c3c(c(NCC4CC4)nc2cc1OCCCN1CCCC1)CC(C)(C)C3 [Example 97, N-(cyclopropylmethyl)-8-methoxy-2,2-dimethyl-7-[3-(pyrrolidin-1-yl)propoxy]-1H,2H,3H-cyclopenta[c]quinolin-4-amine formate]
0.17 | COc1cc2c3c(c(N[C@H]4CC[C@H](O)CC4)nc2cc1OCCCN1CCCC1)CCC3 [Example 123, (1R,4R)-4-({8-methoxy-7-[3-(pyrrolidin-1-yl)propoxy]-1H,2H,3H-cyclopenta[c]quinolin-4-yl}amino)cyclohexan-1-ol formate]
1 | COc1cc2c3c(c(N[C@H]4CCC[C@H]4O)nc2cc1OCCCN1CCCC1)CCC3 (racemic) [Example 125, (1R,2S)-2-({8-methoxy-7-[3-(pyrrolidin-1-yl)propoxy]-1H,2H,3H-cyclopenta[c]quinolin-4-yl}amino)cyclopentan-1-ol and (1S,2R)-2-({8-methoxy-7-[3-(pyrrolidin-1-yl)propoxy]-1H,2H,3H-cyclopenta[c]quinolin-4-yl}amino)cyclopentan-1-ol (1:1) mixture as formate salt]
0.029 | CNc1nc2cc(OCCCN3CCCC3)c(OC)cc2c2c1CCCC2 [Example 2, 2-methoxy-N-methyl-3-[3-(pyrrolidin-1-yl)propoxy]-7,8,9,10-tetrahydrophenanthridin-6-amine formate]
3 | COc1cc2c3c(c(NC4CCN(C(C)C)CC4)nc2cc1OCCCN1CCCC1)CCCC3 [Example 39, 2-methoxy-N-[1-(propan-2-yl)piperidin-4-yl]-3-[3-(pyrrolidin-1-yl)propoxy]-7,8,9,10-tetrahydrophenanthridin-6-amine trifluoroacetate]
